In PubChem BioAssay AID743417 (Broad Institute, 2014):
Records with an inconclusive call do not appear. Calls of active or inactive are those of the source.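 How the source made its calls: active means compounds lowering the luciferase signal with a fitted half-maximal dose at most twice their top valid dose (cut at about 30 µM in these data); inconclusive means flat fits with moderate signal loss, or poor fits; inactive means the rest.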

The molecules below were run on Clone20 osteoblast Shn3 3'UTR firefly luciferase, 24 h (assay: Schnurri-3 3'UTR-luciferase signal suppressors – cell-based, Clone20 osteoblasts, luminescence, dry powder, set 2, dose response (AID 743417)).

| Compound | AC50 |
| --- | --- |
| CN(c1ccccc1)S(=O)(=O)c1cccc(NC(=O)CSc2nncs2)c1 | 1.44 µM |
| CCn1nc(/C=C/c2ccccc2)nc2c(=O)n(C)c(=O)nc1-2 | 2.57 µM |
| c1ccc(CNc2c(-c3cccc(SC4CCCCC4)c3)nc3ccccn23)cc1 | 3.46 µM |
| CCOc1ccc2nc3cc(NCc4ccc(OC)cc4)ccc3c(N)c2c1 | 6.69 µM |
| C=C1C(=O)O[C@@H]2C[C@@H](C)[C@@H]3C=CC(=O)[C@@]3(C)[C@@H](O)[C@H]12 | 0.825 µM |
| CNc1ccccc1C(C)(C)c1cc(-c2cccc(OC)c2)no1 | 1.92 µM |
| C=CCC[C@H](Cc1ccc(F)cc1)C(=O)OC[C@H](Cc1c[nH]c2ccccc12)NC(=O)[C@@H](CC=C)CC(=O)N[C@H](CO)Cc1ccccc1 | 4.44 µM |
| CC(Oc1ccc(Cl)cc1Cl)c1nc(-c2ccc(NC(=O)c3ccncc3)cc2)no1 (centres undefined) | 3.93 µM |
| CC1(c2ccc3ccccc3c2)NC(=O)N(CC(=O)N2CCN(Cc3ccc(C#N)cc3)CC2)C1=O (centres undefined) | 0.416 µM |
| O=C(CN1C(=O)c2ccccc2S1(=O)=O)c1ccc2c(c1)OCCCO2 | 0.262 µM |
| O=C(CSc1ccccn1)Nc1nonc1[N+](=O)[O-] | 5 µM |
| CCC(=O)NC(c1ccc(C)cc1)c1ccc2cccnc2c1O (centres undefined) | 0.704 µM |
| Cc1cccc(N2CCN(C(=S)Nc3ccc4nc(N5CCN(C)CC5)cc(C)c4c3)CC2)c1C | 5.45 µM |
| CCCOc1ccccc1N/C(=N/c1nc(C)cc(C)n1)NC(=O)COc1ccc(OC)cc1 | 3.24 µM |
| COc1ccc(NC(=O)/C(Cl)=C(/Cl)S(=O)Cc2ccccc2)cn1 (centres undefined) | < 0.26 µM |
| O=[N+]([O-])c1cccnc1S(=O)(=O)c1ccccc1 | 4.79 µM |
| COCC1CCN(C(=O)c2cc(COc3ccc4ncccc4c3)on2)CC1 | 2.7 µM |
| CCn1c(=NC(=O)CS(=O)(=O)c2ccccc2)sc2cccc(OC)c21 | 1.68 µM |
| CN(C(=O)COc1ccccc1C(=O)NCCOc1ccccc1)c1ccccc1 | 1.57 µM |
| O=S(=O)(c1cccs1)N1CCN(CCOc2ccc(Cl)cc2)CC1 | 13.8 µM |
| COc1ccc(CCNC(=O)CCC(=O)N2CCOc3ccc(Cl)cc32)cc1OC | > 70 µM (inactive) |
| C=C1CC(Cn2cc(Br)c(=O)[nH]c2=O)(c2ccc(-c3ccccc3)cc2)OC1=O (centres undefined) | 2.67 µM |
| COc1ccccc1CNc1nc(NCc2ccccc2SC)c2sccc2n1 | 4.48 µM |
| OCc1ccc(O)c2ncccc12 | 1.66 µM |
| CCc1ccc(-n2c(O)c(C=NCCN(CC)CC)c(=O)[nH]c2=O)cc1 | > 70 µM (inactive) |

| Compound | AC50 |
| --- | --- |
| O=C(/C(=C/c1ccc(Cl)cc1)c1nc2ccccc2[nH]1)c1cccs1 | 2.66 µM |
| COC(=O)C1=C(c2ccc(-c3ccccc3)c(F)c2)C[C@@H]2CC[C@H]1N2C(=O)N1CCCC1 | 6.06 µM |
| CC(=O)OCCCNc1cc(Sc2nc3ccccc3s2)c2nonc2c1[N+](=O)[O-] | 4.7 µM |
| Cc1cccc(C)c1NC(=O)c1nc(S(=O)(=O)Cc2ccccc2)ncc1Cl | 4.33 µM |
| Cc1c(C)c2ccc(OCC(=O)Nc3ccccn3)c(C)c2oc1=O | 0.416 µM |
| COc1ccccc1OCC(=O)c1[nH]c(C)c(C(C)=O)c1C | 3.35 µM |
| Cn1nc(-c2ccc(Cl)cc2)c2cc(C(=O)N3CCN(c4ccccn4)CC3)sc21 | 4.02 µM |
| O=C(Nc1nc(-c2ccccn2)cs1)c1cccc(-n2cnnn2)c1 | 2.58 µM |
| Cc1ccc(-c2ccc(/C=C3\C(=O)ON=C3c3ccccc3)o2)c([N+](=O)[O-])c1 | 3.3 µM |
| COc1ccc(C(NC(=O)c2cccnc2)c2cc(Cl)c3cccnc3c2O)cc1OC (centres undefined) | 1.88 µM |
| c1ccc(CC2CCN(c3ncnc4sccc34)CC2)cc1 | 0.362 µM |
| CN(CC(=O)Nc1ccccc1Cl)C(=O)c1cccc(S(=O)(=O)N2CCN(c3ccc(F)cc3)CC2)c1 | 3.62 µM |
| Cc1ccc(C)c(S(=O)(=O)N2CCN(Cc3ccc(O)c4ncccc34)CC2)c1 | 2.84 µM |
| NC(Cc1ccc(Cl)cc1)c1csc(NC(=O)NCC2CCCCC2)n1 (centres undefined) | 6.58 µM |
| CCOc1ccccc1NC(=O)c1nc(S(=O)(=O)Cc2cccc(C)c2)ncc1Cl | 0.324 µM |
| N=C1S/C(=C\c2ccc(-c3cccc(Cl)c3)o2)C(=O)N1c1nccs1 | 2.82 µM |
| CC(C)(C)C(=O)Nc1cc(S(=O)(=O)N2CCCCC2)ccc1N1CCCCC1 | 23.1 µM |
| Cn1nc(C(C)(C)C)cc1C(=O)N1CCCCC1c1cc(C(=O)Nc2ccc(F)c(Cl)c2)no1 (centres undefined) | 3.04 µM |
| CC/C(=C/c1ccccc1)c1cccc2[nH]c3c(OC)cccc3c12 | 32.8 µM |
| Fc1ccc2[nH]c3c(N4CCc5ccccc5C4)ncnc3c2c1 | 0.466 µM |
| C=C1C(=O)O[C@H]2[C@H]1[C@H](OC(=O)CC(=O)O[C@@H]1C[C@@H](C)[C@@H]3C=CC(=O)[C@@]3(C)[C@H]3OC(=O)C(=C)[C@H]13)C[C@@H](C)[C@H]1C=CC(=O)[C@]12C | 1.54 µM |
| Cc1nc(-n2[nH]c3c(c2=O)CCCC3)[nH]c(=O)c1Cc1ccccc1 | 4.44 µM |
| COc1ccc(C(=O)Cn2c(C(=O)/C=C/c3ccccc3)nc3ccccc32)cc1 | 4.47 µM |
| Cc1cc(F)ccc1S(=O)(=O)Nc1ccccc1C(=O)Nc1ccccc1-c1nc2ccccc2[nH]1 | 12.1 µM |
| COc1ccc(S(=O)(=O)N(C)C)cc1NC(=O)C1CCN(c2ncnc3sc(C)c(C)c23)CC1 | 9.21 µM |

| Compound | AC50 |
| --- | --- |
| CN(Cc1cccc(Cl)c1Cl)C(=O)c1cccc(S(=O)(=O)N2CCN(Cc3ccccc3)CC2)c1 | 3.38 µM |
| CCc1nnc(NC(=O)c2nc(S(=O)(=O)Cc3ccccc3)ncc2Cl)s1 | 2.72 µM |
| CCOc1ccc(OCc2cccc(C(=O)O)c2)cc1 | 0.649 µM |
| CCCCCOC(=O)c1[nH]c2c(c1C)C(=O)CC(c1ccco1)C2 (centres undefined) | 1.49 µM |
| COc1cc(NC(=O)COc2cccc3c2OC(C)(C)C3)cc(OC)c1OC | 4.38 µM |
| CC1(C)CC[C@]2(C(=O)n3ccnc3)CC[C@]3(C)[C@H](C(=O)C=C4[C@@]5(C)C=C(C#N)C(=O)C(C)(C)[C@@H]5CC[C@]43C)[C@@H]2C1 | < 0.26 µM |
| COc1ccc(NS(=O)(=O)c2ccc(-c3cnc(C4CC4)o3)cc2)cc1OC | 1.33 µM |
| Cc1ccc(S(=O)(=O)N2CCN(c3ncnc4sccc34)CC2)cc1C | 3.53 µM |
| CC1=CC2/C=C(\C)CCC(O)C(O)/C=C/C(=O)C23C(=O)NC(CC(C)C)C3C1C (centres undefined) | 5.29 µM |
| CCCCC(=O)NC(c1ccc(Cl)cc1)c1ccc2cccnc2c1O (centres undefined) | 0.772 µM |
| O=C(c1ccccc1)N1CCN(c2ncnc3sc4c(c23)CCC4)CC1 | 4.14 µM |
| CCCCCCn1c(NCC)nc2c1c(=O)n(C)c(=O)n2C | 0.834 µM |
| CC1=NOC(=O)/C1=C\c1ccc(-c2ccccc2Br)o1 | 6.48 µM |
| COc1cccc(C(c2nnnn2-c2ccc3c(c2)OCCO3)N2CCC(n3c(=O)[nH]c4ccccc43)CC2)c1OC (centres undefined) | 3.74 µM |
| Cn1nnnc1Sc1ncnc2scc(Br)c12 | 6.51 µM |
| N=c1n(Cc2ccccc2)c2ccccc2n1CC(O)COc1ccc(Cl)cc1Cl (centres undefined) | 2.89 µM |
| COc1ccc(C2=Nn3c([n+](C)c4ccccc43)SC2)cc1 | 1.16 µM |
| COc1ccc(C[C@H]2COC(=O)[C@@H]2Cc2ccc(OC3OC(CO)C(O)C(O)C3O)c(OC)c2)cc1OC (some centres undefined) | 4.43 µM |
| Nc1cc(Cl)c2nonc2c1[N+](=O)[O-] | 5.37 µM |
| CN(C)c1nc(-c2ccccn2)nnc1-c1ccccc1 | 3.3 µM |
| Cc1ccc2c(c1)nnn2C1CCN(S(=O)(=O)c2ccc(C(=O)N3C(C)CCCC3C)cc2)CC1 (centres undefined) | 0.695 µM |
| CCN(CC)S(=O)(=O)c1cc(NC(=O)CNc2cccc(S(=O)(=O)N3CCCC3)c2)ccc1C | 0.648 µM |
| Cc1cc2c(cc(C(=O)N3CCC(C(=O)NC4CCCC4)CC3)n2Cc2c(F)cccc2Cl)o1 | 4.81 µM |
| COc1ccccc1CNc1nc(NCc2ccccc2OC)c2sccc2n1 | 6.33 µM |
